Tests used:
[1] = tested on: Human alphaherpesvirus 1; experiment: Reduction of titer of Herpes simplex type-1 virus after 2 hr of incubation at 0.1% concentration; format: functional
[2] = tested on: Human alphaherpesvirus 1; experiment: Reduction of titer of Herpes simplex type-1 virus after 2 hr of incubation at 0.01% concentration; format: functional

## CN1c2cc(N)ccc2Cc2ccc(N)cc21
[1]
  TCID50: 3.7
[2]
  TCID50: 1.6
